Patent US12691101B2, “Compound and method for preventing or treating of respiratory diseases comprising the same as an active ingredient” (YONSEI UNIVERSITY, UNIVERSITY - INDUSTRY FOUNDATION (UIF), priority 2019, dated 2026)

Molecular target: T1, human wild-type (WT)-pendrin (Homo sapiens, UniProt O43511)
T1 construct: expressed in transfected cells
T1 sequence (O43511 1-780): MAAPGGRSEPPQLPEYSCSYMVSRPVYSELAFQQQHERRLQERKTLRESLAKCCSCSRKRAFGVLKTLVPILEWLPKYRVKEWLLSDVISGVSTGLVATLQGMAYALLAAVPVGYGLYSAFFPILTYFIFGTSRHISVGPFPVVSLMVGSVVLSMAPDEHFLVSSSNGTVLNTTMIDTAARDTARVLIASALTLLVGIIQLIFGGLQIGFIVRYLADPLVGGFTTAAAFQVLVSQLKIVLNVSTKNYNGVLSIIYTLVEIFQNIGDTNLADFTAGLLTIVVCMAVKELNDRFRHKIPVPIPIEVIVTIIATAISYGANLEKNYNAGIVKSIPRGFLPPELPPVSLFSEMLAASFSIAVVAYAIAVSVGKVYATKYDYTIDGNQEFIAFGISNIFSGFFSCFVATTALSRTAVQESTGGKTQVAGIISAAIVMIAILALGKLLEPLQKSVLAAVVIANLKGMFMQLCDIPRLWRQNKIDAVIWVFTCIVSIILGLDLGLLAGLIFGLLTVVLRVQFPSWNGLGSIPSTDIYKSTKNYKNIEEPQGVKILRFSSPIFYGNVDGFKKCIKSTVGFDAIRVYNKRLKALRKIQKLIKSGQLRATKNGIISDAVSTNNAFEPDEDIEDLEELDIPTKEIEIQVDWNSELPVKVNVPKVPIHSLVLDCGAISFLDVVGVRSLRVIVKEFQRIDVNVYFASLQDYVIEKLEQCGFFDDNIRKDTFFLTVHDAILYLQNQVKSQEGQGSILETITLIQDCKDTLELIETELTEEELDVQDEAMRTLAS
Test: Pendrin-mediated Cl^−/I^− exchange activity, YFP fluorescence in CHO-K1 cells
Type: cell-based
Settings: for inhibition at 30 µM: CHO-K1, 30 μM, read-out: Pendrin inhibitory activity at 30 μM (%); for IC50: compounds showing pendrin inhibitory activity of 50% or more at 30 μM, read-out: IC50
Protocol: Chinese hamster ovary (CHO)-K1 cells were maintained in a DMEM medium containing 10% fetal bovine serum (FBS), 100 units/ml penicillin and 100 100 μg/ml streptomycin. CHO-K1 cells were stably transfected with pcDNA3.1 encoding halide sensor YFP-H148Q/I152L/F46L and human wild-type (WT)-pendrin. For distribution of primary culture of human nasal cavity epithelium (HNE) cells, passage-2 cells were seeded into transwell-transparent culture inserts with a pore size of 0.45 μm (Costar Co., Cambridge, MA) at a density of 2×10^5 cells/cm^2. The cells were maintained in a 1:1 mixture of Dulbecco's modified Eagle's medium (Lonza, Walkersville, MD) and bronchial epithelial growth medium (Lonza) supplemented with the following growth factors according to the manufacturer's instructions. After immersing the cells for the first 7 days, they were exposed to the apical air interface for the remainder of the culture period. After establishment of the air-liquid interface, the cells were used between 14 and 21 days. At all stages of culture, the cells were maintained at 37° C. under 5% CO2 in an air incubator.
CHO-K1 cells expressing human WT pendrin and YFP-F46L/H148Q/I152L were plated on a 96-well microplate at a density of 2×10^4 cells per well and cultured for 48 hours. Each well of the cell cultured 96-well plate was washed with PBS of 200 μL twice and was filled with HEPES buffer solution of 50 μL, respectively. […] After culturing at 37° C. for 10 minutes, the 96-well plate was positioned on FLUOstar Omega microplate reader (BMG Labtech, Ortenberg, Germany) for fluorescence analysis. By continuously (400 ms per point) recording fluorescence for 1 second (base line), each well was individually analyzed for pendrin-mediated I^− inflow, and then at 1 second, 50 μL of NaI-substituted HEPES buffer solution (NaI replacing NaCl) was added using a liquid injector and the YFP fluorescence was recorded for 5 seconds. The initial iodide inflow rate was determined from the initial slope of fluorescence by nonlinear regression, after injection the iodide (See FIG. 1).
For measurement of Cl^−/I^− exchange activity, YFP fluorescence was measured in pendrin and halide sensor YFP expressing CHO-K1 cells. Each well of the cell cultured 96-well plate was washed with PBS of 200 μL twice, and was filled with HEPES buffer solution (140 mM NaCl, 5 mM KCl, 1 mM MgCl2, 1 mM CaCl2, 10 mM glucose and 10 mM HEPES (pH 7.4)), respectively. […] After culturing at 37° C. for 10 minutes, the 96-well plate was positioned on FLUOstar Omega microplate reader (BMG Labtech, Ortenberg, Germany) for fluorescence analysis.
By continuously (400 ms per point) recording fluorescence for 1 second (base line), each well was individually analyzed for pendrin-mediated I^− inflow, and then at 1 second, 50 μL of NaI-substituted HEPES buffer solution (140 mM NaI, 5 mM KCl, 1 mM MgCl2, 1 mM CaCl2, 10 mM glucose and 10 mM HEPES (pH 7.4)) was added using a liquid injector and the YFP fluorescence was recorded for 5 seconds. The initial iodide inflow rate was determined from the initial slope of fluorescence by nonlinear regression, after injection the iodide.

Compound | inhibition at 30 µM | IC50
CC(=O)Nc1ccc(C2=NC(=Cc3cccs3)C(=O)O2)cc1 [F33, N-(4-(5-oxo-4-(thiophen-2-ylmethylene)-4,5-dihydrooxazol-2-yl)phenyl)acetamide] | 88.7% | 9.3 ± 0.68 µM
COc1ccccc1C1=NC(=Cc2cccs2)C(=O)O1 [F34, 2-(2-Methoxyphenyl)-4-(thiophen-2-ylmethylene)oxazol-5 (4H)-one] | 82.8% | 8.6 ± 0.84 µM
CC(C)(C)NS(=O)(=O)c1ccc(C2=NC(=Cc3cccs3)C(=O)O2)cc1 [F35, N-(tert-butyl)-4-(5-oxo-4-(thiophen-2-ylmethylene)-4,5-dihydrooxazol-2-yl)benzene sulfonamide] | 87.2% | 11.6 ± 1.25 µM
CC(C)NS(=O)(=O)c1ccc(C2=NC(=Cc3cccs3)C(=O)O2)cc1 [F36, N-isopropyl-4-(5-oxo-4-(thiophen-2-ylmethylene)-4,5-dihydrooxazol-2-yl)benzene sulfonamide] | 89.6% | 14.8 ± 2.01 µM
O=C1OC(c2ccc(-c3ccccc3)cc2)=NC1=Cc1cccs1 [F37, 2-([1,1′-biphenyl]-4-yl)-4-(thiophen-2-ylmethylene)oxazol-5 (4H)-one] | 3.5% | –
CC(C)(C)c1ccc(C2=NC(=Cc3ccco3)C(=O)O2)cc1 [F38, 2-(4-(tert-butyl)phenyl)-4-(furan-2-ylmethylene)oxazol-5 (4H)-one] | 92.6% | 3.5 ± 0.27 µM
Cn1cc(C=C2N=C(c3ccc(C(C)(C)C)cc3)OC2=O)cn1 [F39, 2-(4-(tert-butyl)phenyl)-4-((1-methyl-1H-pyrazol-4-yl)methylene)oxazol-5(4H)-one] | 58.8% | 25.8 ± 2.16 µM
CC(C)(C)c1ccc(C2=NC(=Cc3cccnc3)C(=O)O2)cc1 [F40, 2-(4-(tert-butyl)phenyl)-4-(pyridin-3-ylmethylene)oxazol-5(4H)-one] | 92.3% | –
CC(C)(C)c1ccc(C2=NC(=Cc3ccncc3)C(=O)O2)cc1 [F41, 2-(4-(tert-butyl)phenyl)-4-(pyridin-4-ylmethylene)oxazol-5(4H)-one] | 27.5% | –
O=C1OC(c2ccc(-c3ccccc3)cc2)=NC1=Cc1cccnc1 [F42, 2-([1,1′-biphenyl]-4-yl)-4-(pyridin-3-ylmethylene)oxazol-5(4H)-one] | 4.2% | –
CSc1ccc(C=C2N=C(c3ccc(C(C)(C)C)cc3)OC2=O)cc1 [F43, 2-(4-(tert-butyl)phenyl)-4-(4-(methylthio)benzylidene)oxazol-5 (4H)-one] | 5.4% | –
CC(C)(C)c1ccc(C2=NC(=Cc3ccccc3)C(=O)O2)cc1 [F44, 4-Benzylidene-2-(4-(tert-butyl)phenyl)oxazol-5 (4H)-one] | 3.5% | –
O=C1OC(c2ccc(Br)cc2)=NC1=Cc1cccs1 [F45, 2-(4-Bromophenyl)-4-(thiophen-2-ylmethylene)oxazol-5 (4H)-one] | 4.6% | –
CC(C)c1ccc(C2=NC(=Cc3cccs3)C(=O)O2)cc1 [F46, 2-(4-Isopropylphenyl)-4-(thiophen-2-ylmethylene)oxazol-5(4H)-one] | 53.8% | 22.7 ± 2.48 µM
CC(C)c1ccc(C2=NC(=Cc3ccsc3)C(=O)O2)cc1 [F47, 2-(4-Isopropylphenyl)-4-(thiophen-3-ylmethylene)oxazol-5(4H)-one] | 33.2% | –
O=C1OC(c2ccc(C(F)(F)F)cc2)=NC1=Cc1ccco1 [F48, 4-(Furan-2-ylmethylene)-2-(4-(trifluoromethyl)phenyl)oxazol-5(4H)-one] | 2.4% | –
CC(C)c1ccc(C2=NC(=Cc3ccco3)C(=O)O2)cc1 [F49, 4-(Furan-2-ylmethylene)-2-(4-isopropylphenyl)oxazol-5 (4H)-one] | 89.1% | 3.9 ± 0.36 µM
O=C1OC(c2ccc(Br)cc2)=NC1=Cc1ccco1 [F50, 2-(4-Bromophenyl)-4-(furan-2-ylmethylene)oxazol-5 (4H)-one] | 3.7% | –
O=C1OC(c2ccc(Br)cc2)=NC1=Cc1ccsc1 [F51, 2-(4-Bromophenyl)-4-(thiophen-3-ylmethylene)oxazol-5(4H)-one] | 2.7% | –
O=C1OC(c2ccc3ccccc3c2)=NC1=Cc1cccs1 [F52, 2-(Naphthalen-2-yl)-4-(thiophen-2-ylmethylene)oxazol-5(4H)-one] | 4.1% | –

Second part, the compound after the results:

inhibition at 30 µM | IC50 | Compound
3.1% | – | CCCCc1ccc(C2=NC(=Cc3cccs3)C(=O)O2)cc1 [F53, 2-(4-Butylphenyl)-4-(thiophen-2-ylmethylene)oxazol-5(4H)-one]
2.6% | – | CCCCc1ccc(C2=NC(=Cc3ccco3)C(=O)O2)cc1 [F54, 2-(4-Butylphenyl)-4-(furan-2-ylmethylene)oxazol-5 (4H)-one]
3.8% | – | O=C1OC(c2ccc(OC(F)F)cc2)=NC1=Cc1cccs1 [F55, 2-(4-(difluoromethoxy)phenyl)-4-(thiophen-2-ylmethylene)oxazol-5(4H)-one]
16.1% | – | O=C1OC(c2ccccc2)=NC1=Cc1ccccc1[N+](=O)[O-] [F57, 4-(2-Nitrobenzylidene)-2-phenyloxazol-5(4H)-one]
2.5% | – | CC(=O)Oc1ccc(C=C2N=C(c3ccc(C(C)(C)C)cc3)OC2=O)cc1 [F58, 4-((2-(4-(tert-butyl)phenyl)-5-oxooxazol-4 (5H)-ylidene)methyl)phenylacetate]
1.8% | – | CN(C)c1ccc(C=C2N=C(c3sc4ccccc4c3Cl)OC2=O)cc1 [F59, 2-(3-Chlorobenzo[b]thiophen-2-yl)-4-(4-(dimethylamino)benzylidene)oxazol-5(4H)-one]
3.1% | – | COc1ccc(C2=NC(=Cc3ccc(C(=O)O)cc3)C(=O)O2)cc1 [F60, 4-((2-(4-Methoxyphenyl)-5-oxooxazol-4(5H)-ylidene)methyl)benzoate]
2.2% | – | O=C1OC(c2ccccc2)=NC1=Cc1cccs1 [F61, 2-Phenyl-4-(thiophen-2-ylmethylene)oxazol-5(4H)-one]
2.4% | – | CC(C)c1ccc(C=C2N=C(c3cccc4ccccc34)OC2=O)cc1 [F62, 4-(4-Isopropylbenzylidene)-2-(naphthalen-1-yl)oxazol-5 (4H)-one]
1.6% | – | Cc1ccc(C2=NC(=Cc3cccs3)C(=O)O2)cc1I [F63, 2-(3-Iodo-4-methylphenyl)-4-(thiophen-2-ylmethylene)oxazol-5(4H)-one]
2.8% | – | CC(C)(C)c1ccc(C2=NC(=Cc3ccc(OCc4ccccc4)cc3)C(=O)O2)cc1 [F64, 4-(4-(Benzyloxy)benzylidene)-2-(4-(tert-butyl)phenyl)oxazol-5 (4H)-one]
1.7% | – | O=C1OC(c2ccccc2)=NC1=Cc1cccn1Cc1ccccc1Cl [F65, 4-((1-(2-Chlorobenzyl)-1H-pyrrol-2-yl)methylene)-2-phenyloxazol-5(4H)-one]
